Results reported in ChEMBL document CHEMBL1124516, “Synthesis of 2,3-diaziridinyl-1,4-naphthoquinone sulfonate derivatives as potential antineoplastic agents” (1989).

Key:
L1210 [1] = assay: Percentage survival time of L1210 (murine leukemia) inoculated mice following 30 mg/kg i.p.; type: functional, Mus musculus; conditions: route intraperitoneal
Mus musculus [2] = assay: Number of mice surviving for a period greater than 50 days when a dose of 30 mg/Kg is administered intraperitoneally; tested in 5 mice; type: functional
Mus musculus [3] = assay: Average change in weight in mice bearing the L1210 Leukemia, when compound (25 mg/kg) was administered once daily beginning 24 hr after tumor implantation, for 6 consecutive days.; type: functional
Mus musculus [4] = assay: Average change in weight in mice bearing the L1210 Leukemia, when compound(30 mg/kg) was administered once daily beginning 24 hr after tumor implantation, for 6 consecutive days.; type: functional
Mus musculus [5] = assay: Average change in weight in mice bearing the L1210 Leukemia, when compound (20 mg/kg) was administered once daily beginning 24 hr after tumor implantation, for 6 consecutive days.; type: functional
L1210 [6] = assay: Percentage survival time of L1210 (murine leukemia) inoculated mice following 20 mg/kg i.p.; type: functional, Mus musculus; conditions: route intraperitoneal
L1210 [7] = assay: Percentage survival time of L1210 (murine leukemia) inoculated mice following 25 mg/kg i.p.; type: functional, Mus musculus; conditions: route intraperitoneal
L1210 [8] = assay: Number L1210 (murine leukemia) inoculated mice surviving for >50 days following 25 mg/kg i.p.; type: functional, Mus musculus; conditions: route intraperitoneal
Mus musculus [9] = assay: Number of mice survived for a period greater than 50 days when a dose of 20 mg/Kg is administered intraperitoneally; tested in 5 mice; type: functional
Mus musculus [10] = assay: The ratio of the survival time of treated to control animals x 100 in mice bearing B16 Melanoma, when compound (50 mg/kg) was administered intraperitoneally; type: functional
Mus musculus [11] = assay: The ratio of the survival time of treated to control animals x 100 in mice bearing B16 Melanoma, when compound (150 mg/kg) was administered intraperitoneally; type: functional
Mus musculus [12] = assay: Average change in weight in mice bearing the B16 Melanoma, when compound(100 mg/kg) was administered beginning 24 hr after tumor implantation, daily once for 6 consecutive days.; type: functional
Mus musculus [13] = assay: Average change in weight in mice bearing the B16 Melanoma, when compound(150 mg/kg) was administered beginning 24 hr after tumor implantation, daily once for 6 consecutive days.; type: functional
Mus musculus [14] = assay: Average change in weight in mice bearing the B16 Melanoma, when compound(50 mg/kg) was administered intraperitoneally beginning 24 hr after tumor implantation, daily once for 6 consecutive days.; type: functional
Mus musculus [15] = assay: The ratio of the survival time of treated to control animals x 100 in mice bearing B16 Melanoma, when compound (100 mg/kg) was administered intraperitoneally; type: functional

Row | SMILES | Activity (L1210 [1]) | Survivals (Mus musculus [2]) | Average body weight change (Mus musculus [3]) [%] | Average change in body weight (Mus musculus [4]) [%] | Average change in body weight (Mus musculus [5]) [%] | Activity (L1210 [6]) | Activity (L1210 [7]) | Survivals (L1210 [8]) | Survivals (Mus musculus [9]) | Activity (Mus musculus [10]) | Activity (Mus musculus [11]) | Average change in body weight (Mus musculus [12]) [%] | Average change in body weight (Mus musculus [13]) [%] | Average body weight change (Mus musculus [14]) [%] | Activity (Mus musculus [15])
1 | O=C1C(N2CC2)=C(N2CC2)C(=O)c2c(OS(=O)(=O)c3ccc([N+](=O)[O-])cc3[N+](=O)[O-])cccc21 | 100 | 0 | 4.8 | -1.3 | 2.3 | 111 | 105 | 0 | 0 | – | – | – | – | – | –
2 | Cc1ccc(S(=O)(=O)Oc2cccc3c2C(=O)C=C(N2CC2)C3=O)cc1 | 111 | 0 | 5.1 | 1.2 | 7.3 | 102 | 103 | 0 | 0 | – | – | – | – | – | –
3 | CC1(C)C2CCC1(CS(=O)(=O)Oc1cccc3c1C(=O)C(N1CC1)=C(N1CC1)C3=O)C(=O)C2 (stereo not drawn) | 168 | 0 | -3.5 | -9.2 | -9.3 | 136 | 148 | 0 | 0 | – | – | – | – | – | –
4 | O=C1C(N2CC2)=C(N2CC2)C(=O)c2c(OS(=O)(=O)c3cccc4cccnc34)cccc21 | 291 | 3 | -6.5 | -8 | -6.6 | 332 | 418 | 4 | 3 | 195 | 239 | -8.2 | -14.3 | -1.7 | 219
5 | CN(C)c1cccc2c(S(=O)(=O)Oc3cccc4c3C(=O)C(N3CC3)=C(N3CC3)C4=O)cccc12 | 117 | 0 | 3.8 | 3.9 | 2.2 | 110 | 115 | 0 | 0 | – | – | – | – | – | –
6 | O=C1C(N2CC2)=C(N2CC2)C(=O)c2c(OS(=O)(=O)Cc3ccccc3)cccc21 | 141 | 0 | 3.1 | -3 | 2.4 | 127 | 153 | 0 | 0 | – | – | – | – | – | –
7 | Cc1cc(C)c(S(=O)(=O)Oc2cccc3c2C(=O)C(N2CC2)=C(N2CC2)C3=O)c(C)c1 | 124 | 0 | -2.5 | -2.6 | -0.4 | 113 | 113 | 0 | 0 | – | – | – | – | – | –
8 | O=C1C(N2CC2)=C(N2CC2)C(=O)c2c(OS(=O)(=O)/C=C/c3ccccc3)cccc21 | 150 | 0 | 1.9 | -1 | -3.5 | 132 | 130 | 0 | 0 | – | – | – | – | – | –
9 | CCc1ccc(S(=O)(=O)Oc2cccc3c2C(=O)C(N2CC2)=C(N2CC2)C3=O)cc1 | 172 | 0 | 13.6 | 9.9 | 8.4 | 147 | 151 | 0 | 0 | – | – | – | – | – | –
10 | CC(C)c1cc(C(C)C)c(S(=O)(=O)Oc2cccc3c2C(=O)C(N2CC2)=C(N2CC2)C3=O)c(C(C)C)c1 | 100 | 0 | 9 | 7.4 | 7.8 | 100 | 102 | 0 | 0 | – | – | – | – | – | –
11 | O=C1C(N2CC2)=C(N2CC2)C(=O)c2c(OS(=O)(=O)c3cccs3)cccc21 | – | 5 | -4.7 | -6.4 | -2.3 | 165 | – | 5 | 4 | 156 | 77 | -18.2 | -22.7 | -10.8 | 161
12 | CC(C)(C)c1ccc(S(=O)(=O)Oc2cccc3c2C(=O)C(N2CC2)=C(N2CC2)C3=O)cc1 | 98 | 0 | 11.8 | 6.7 | 12.8 | 104 | 98 | 0 | 0 | – | – | – | – | – | –
13 | O=C1C(N2CC2)=C(N2CC2)C(=O)c2c(OS(=O)(=O)c3ccc(I)cc3)cccc21 | 146 | 0 | 11.1 | 15.8 | 14.6 | 127 | 146 | 0 | 0 | 132 | 141 | 0.6 | -4.1 | 4.1 | 138
14 | O=C1C(N2CC2)=C(N2CC2)C(=O)c2c(OS(=O)(=O)c3cccc4ccccc34)cccc21 | 104 | 0 | 9.2 | 13.7 | 14.6 | 107 | 104 | 0 | 0 | – | – | – | – | – | –
15 | CCCCS(=O)(=O)Oc1cccc2c1C(=O)C(N1CC1)=C(N1CC1)C2=O | 131 | 0 | -10.9 | -11.3 | 0.1 | 131 | 124 | 0 | 0 | – | – | – | – | – | –
16 | O=C1C(N2CC2)=C(N2CC2)C(=O)c2c(OS(=O)(=O)CCCCl)cccc21 | 150 | 0 | -12.1 | -27.6 | -7.5 | 123 | 145 | 0 | 0 | – | – | – | – | – | –
17 | CCCCCCCCCCCCCCCCS(=O)(=O)Oc1cccc2c1C(=O)C(N1CC1)=C(N1CC1)C2=O | 91 | 0 | 9.9 | 9.7 | 13 | 96 | 91 | 0 | 0 | – | – | – | – | – | –
18 | O=C1C(N2CC2)=C(N2CC2)C(=O)c2c(OS(=O)(=O)c3ccc([N+](=O)[O-])cc3)cccc21 | 152 | 4 | -12.9 | -13.1 | -11.1 | 402 | 293 | 3 | 4 | – | – | – | – | – | –
